Data published in ChEMBL document CHEMBL1201862, “PubChem BioAssay data set” (2004).
Several values for one entry are separate records, joined by “and”; a condition that tells them apart may be missing. Identical values can stand only once.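 In this assay, cells in 96-well plates receive the compound at five concentrations for 48 hours. Endpoints are linearly interpolated between the surrounding concentrations. GI50 is the concentration that inhibits growth by half.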 Activity calls are given as the source filed them. No stated cut-off is given here; in the data, active = GI50 up to about 1.1 µM and inactive = higher.

How the values were obtained:
Assay in all cases: inhibition of tumour cell growth, NCI panel, 48 h
K562 = test system: K562
HOP-92 = test system: HOP-92
SK-MEL-28 = test system: SK-MEL-28
Malme-3M = test system: Malme-3M
SF-268 = test system: SF-268
SK-MEL-5 = test system: SK-MEL-5
RPMI-8226 = test system: RPMI-8226
SK-MEL-2 = test system: SK-MEL-2
SK-OV-3 = test system: SK-OV-3
SNB-19 = test system: SNB-19
M14 = test system: M14
SN12C = test system: SN12C
UO-31 = test system: UO-31
U-251 = test system: U-251
UACC-62 = test system: UACC-62
SR = test system: SR
UACC-257 = test system: UACC-257
HCT-116 = test system: HCT-116
DMS-273 = test system: DMS-273
M19-MEL = test system: M19-MEL
SNB-75 = test system: SNB-75
SF-539 = test system: SF-539
NCI-H460 = test system: NCI-H460
HL-60 = test system: HL-60
OVCAR-5 = test system: OVCAR-5
LOX IMVI = test system: LOX IMVI
NCI-H522 = test system: NCI-H522
MDA-MB-231 = test system: MDA-MB-231
HCT-15 = test system: HCT-15
CCRF-CEM = test system: CCRF-CEM
KM12 = test system: KM12
HOP-62 = test system: HOP-62
MDA-N = test system: MDA-N
PC-3 = test system: PC-3
OVCAR-8 = test system: OVCAR-8
COLO 205 = test system: COLO 205
A549 = test system: A549
TK-10 = test system: TK-10
NCI-H23 = test system: NCI-H23
EKVX = test system: EKVX
A498 = test system: A498
MDA-MB-435 = test system: MDA-MB-435
SW-620 = test system: SW-620
T47D = test system: T47D
OVCAR-3 = test system: OVCAR-3
IGROV-1 = test system: IGROV-1
MCF7 = test system: MCF7
DU-145 = test system: DU-145
ACHN = test system: ACHN
OVCAR-4 = test system: OVCAR-4
786-0 = test system: 786-0
RXF 393 = test system: RXF 393
CAKI-1 = test system: CAKI-1
MOLT-4 = test system: MOLT-4
NCI-H226 = test system: NCI-H226
HCC 2998 = test system: HCC 2998
Hs-578T = test system: Hs-578T
NCI/ADR-RES = test system: NCI/ADR-RES
HT-29 = test system: HT-29
BT-549 = test system: BT-549
SF-295 = test system: SF-295

Q: `C/C=C/C=C/CCCCCCCCCCCCC[C@]1(OC)C=C[C@@H](CC(=O)OC)OO1` [XESTIN A] was tested. Which GI50 (K562) did it give?
A: 12.2 µM (inactive) and 20.5 µM (inactive)

Q: And the GI50 (HOP-92)?
A: 1.88 µM (inactive)

Q: And the GI50 (SK-MEL-28)?
A: 15.3 µM (inactive) and 17.5 µM (inactive)

Q: And the GI50 (Malme-3M)?
A: 26.7 µM (inactive) and 21.4 µM (inactive)

Q: What about the GI50 (SF-268) of the same compound?
A: 17.3 µM (inactive) and 21.7 µM (inactive)

Q: And the GI50 (SK-MEL-5)?
A: 15.6 µM (inactive) and 10.1 µM (inactive)

Q: What about the GI50 (RPMI-8226) of the same compound?
A: 7.45 µM (inactive) and 13.5 µM (inactive)

Q: And the GI50 (SK-MEL-2)?
A: 15.5 µM (inactive) and 25.5 µM (inactive)

Q: What about the GI50 (SK-OV-3) of the same compound?
A: 28.6 µM (inactive) and 19.5 µM (inactive)

Q: And the GI50 (SNB-19)?
A: 17.8 µM (inactive)

Q: What about the GI50 (M14) of the same compound?
A: 14.8 µM (inactive) and 17 µM (inactive)

Q: And the GI50 (SN12C)?
A: 12.9 µM (inactive) and 21.6 µM (inactive)

Q: What about the GI50 (UO-31) of the same compound?
A: 2.77 µM (inactive)

Q: And the GI50 (U-251)?
A: 14.7 µM (inactive) and > 10 µM (inactive)

Q: And the GI50 (UACC-62)?
A: 14.1 µM (inactive) and 15.3 µM (inactive)

Q: And the GI50 (SR)?
A: 2.36 µM (inactive)

Q: And the GI50 (UACC-257)?
A: 20.2 µM (inactive) and 17.4 µM (inactive)

Q: What about the GI50 (HCT-116) of the same compound?
A: 16.1 µM (inactive) and 10.1 µM (inactive)

Q: What about the GI50 (DMS-273) of the same compound?
A: 1.57 µM (inactive)

Q: What about the GI50 (M19-MEL) of the same compound?
A: 16.9 µM (inactive) and 11 µM (inactive)

Q: What about the GI50 (SNB-75) of the same compound?
A: 17.4 µM (inactive) and 9.64 µM (inactive)

Q: And the GI50 (SF-539)?
A: 15.2 µM (inactive) and 19.7 µM (inactive)

Q: And the GI50 (NCI-H460)?
A: 22.4 µM (inactive) and 15.1 µM (inactive)

Q: And the GI50 (HL-60)?
A: 3.59 µM (inactive)

Q: For `CC(=O)CC1CCC(=O)/C=C/C(=O)OC(CC(C)=O)CCC(=O)/C=C/C(=O)O1` (stereo not drawn), which GI50 (K562) is on record?
A: 3.25 µM (inactive)

Q: What about the GI50 (OVCAR-5) of the same compound?
A: 17.6 µM (inactive)

Q: And the GI50 (LOX IMVI)?
A: 18.6 µM (inactive)

Q: And the GI50 (NCI-H522)?
A: 1.14 µM (inactive)

Q: What about the GI50 (MDA-MB-231) of the same compound?
A: 5.09 µM (inactive)

Q: What about the GI50 (HCT-15) of the same compound?
A: 2.1 µM

Q: What about the GI50 (HOP-92) of the same compound?
A: 3.78 µM (inactive)

Q: What about the GI50 (CCRF-CEM) of the same compound?
A: 1.6 µM (inactive)

Q: What about the GI50 (SK-MEL-28) of the same compound?
A: 7.33 µM (inactive)

Q: And the GI50 (KM12)?
A: 20.8 µM (inactive)

Q: And the GI50 (Malme-3M)?
A: 2.43 µM (inactive)

Q: And the GI50 (HOP-62)?
A: 23.3 µM (inactive)

Q: What about the GI50 (SF-268) of the same compound?
A: 25.9 µM (inactive)

Q: What about the GI50 (MDA-N) of the same compound?
A: 9.53 µM (inactive)

Q: And the GI50 (PC-3)?
A: 15 µM (inactive)

Q: And the GI50 (SK-MEL-5)?
A: 13.8 µM (inactive)

Q: And the GI50 (OVCAR-8)?
A: 19.3 µM (inactive)

Q: What about the GI50 (RPMI-8226) of the same compound?
A: 2.9 µM (inactive)

Q: And the GI50 (COLO 205)?
A: 1.77 µM (inactive)

Q: What about the GI50 (A549) of the same compound?
A: 21.7 µM (inactive)

Q: And the GI50 (SK-MEL-2)?
A: 6.61 µM (inactive)

Q: And the GI50 (TK-10)?
A: 7.35 µM (inactive)

Q: And the GI50 (SK-OV-3)?
A: 20.7 µM (inactive)

Q: And the GI50 (NCI-H23)?
A: 17.5 µM (inactive)

Q: What about the GI50 (EKVX) of the same compound?
A: 8.02 µM (inactive)

Q: What about the GI50 (A498) of the same compound?
A: 18.3 µM (inactive)

Q: And the GI50 (MDA-MB-435)?
A: 17 µM (inactive)

Q: And the GI50 (SW-620)?
A: 1.67 µM (inactive)

Q: And the GI50 (T47D)?
A: 2.09 µM (inactive)

Q: What about the GI50 (OVCAR-3) of the same compound?
A: 6.79 µM (inactive)

Q: What about the GI50 (SNB-19) of the same compound?
A: 19.8 µM (inactive)

Q: What about the GI50 (IGROV-1) of the same compound?
A: 16.1 µM (inactive)

Q: And the GI50 (MCF7)?
A: 9.25 µM (inactive)

Q: And the GI50 (DU-145)?
A: 19.6 µM (inactive)

Q: And the GI50 (M14)?
A: 3.7 µM (inactive)

Q: What about the GI50 (ACHN) of the same compound?
A: 3.44 µM (inactive)

Q: What about the GI50 (OVCAR-4) of the same compound?
A: 7.83 µM (inactive)

Q: And the GI50 (786-0)?
A: 5.15 µM (inactive)

Q: And the GI50 (RXF 393)?
A: 3.22 µM (inactive)

Q: What about the GI50 (SN12C) of the same compound?
A: 8.55 µM (inactive)

Q: And the GI50 (UO-31)?
A: 12.6 µM (inactive)

Q: And the GI50 (CAKI-1)?
A: 6.53 µM (inactive)

Q: What about the GI50 (MOLT-4) of the same compound?
A: 2.19 µM (inactive)

Q: And the GI50 (U-251)?
A: 21.4 µM (inactive)

Q: And the GI50 (UACC-62)?
A: 14.6 µM (inactive)

Q: What about the GI50 (NCI-H226) of the same compound?
A: 33 µM (inactive)

Q: And the GI50 (HCC 2998)?
A: 22.8 µM (inactive)

Q: What about the GI50 (SR) of the same compound?
A: 2.23 µM (inactive)

Q: What about the GI50 (UACC-257) of the same compound?
A: 15.5 µM (inactive)

Q: What about the GI50 (Hs-578T) of the same compound?
A: 27.9 µM (inactive)

Q: And the GI50 (NCI/ADR-RES)?
A: 19.9 µM (inactive)

Q: And the GI50 (HCT-116)?
A: 4.1 µM (inactive)

Q: What about the GI50 (HT-29) of the same compound?
A: 11.2 µM (inactive)

Q: What about the GI50 (BT-549) of the same compound?
A: 3.2 µM (inactive)

Q: And the GI50 (SF-295)?
A: 13.6 µM (inactive)

Q: And the GI50 (SNB-75)?
A: 12.8 µM (inactive)

Q: What about the GI50 (SF-539) of the same compound?
A: 19.3 µM (inactive)

Q: And the GI50 (NCI-H460)?
A: 18.5 µM (inactive)

Q: What about the GI50 (HL-60) of the same compound?
A: 2.45 µM (inactive)
